# Results: patent US20060084672A1, “Method for modification of y-secretase activity through inhibition of Fkbp13” (The Hospital for Sick Children, priority 2004, published 2006)
# What was measured:
# PEN-2 = PEN-2 protein levels in transfected Drosophilia S2 cells (Western analysis); type: cell-based; conditions: concentration not given
# Text: (§1) In order to determine if Fkbp13 can also affect the stability of other components of the γ-secretase complex, Drosophilia S2 cells were transfected with tagged constructs expressing APH-1, PEN-2 or Nct and then examined for the effects of FK506 on protein levels.
# (§2) cDNA's encoding APH-1, PEN-2 and Nct were subcloned into pAc5.1/V5-HisA or pIB/V5-His TOPO and transiently transfected into Drosophilia S2 cells using cellfectin according to the manufacturer's protocol (Invitrogen). Cells were collected between 24-48 hours for Western analysis using the following antibodies: monoclonal anti-V5 1:5000(Invitrogen), monoclonal anti-HA 1:2000(Roche), monoclonal anti-FLAG M2 1:5000(Sigma) and monoclonal anti-β-tubulin 1:1000 (DSHB).
# (§3) In contrast, no effect was observed on the levels of either APH-1 or Nct (FIG. 4A). […] Drosophilia S2 cells were transfected with tagged versions of APH-1, PEN-2 or Nct and treated with 50 μM FK506 over a 24 hour period. No effect was observed on the levels of APH-1, Nct or β-tubulin control. Similarly, no effect was observed using either DMSO (control) or the known γ-secretase inhibitor, DAPT.
# γ-secretase = biological target: T1, γ-secretase (Homo sapiens, UniProt P49768); experiment: Aβ1-40 sandwich ELISA in Cos-7 cells stably expressing APP C99 and transfected with human PS1; type: cell-based
# T1 construct: expressed in transfected cells; host or cells: Cos-7 stably expressing APP C99 (pCEP4-SPA4CT-DA)
# Method: To determine the effect of drug treatment on Psn stability, HEK293 cells were transiently co-transfected with psn and Fkbp13 constructs. 24 hours after transfection, 100 mm dishes of transfected HEK293 cells were treated with 5 μM FK506 (CALBIOCHEM), 1 μM Rapamycin (CALBIOCHEM) or DMSO (control), harvested at various time points and analyzed by Western blotting techniques. To measure Aβ40, Cos-7 cells were transfected with pCEP4-SPA4CT-DA (gift from Dr. Gunter Merdes, ZMBH, University of Heidelberg) that contains an APP^C99 cDNA using lipofectin (Gibco) according to the manufacturers protocol. Cells stably expressing APP^C99 were selected using 300 μg/ml hygromycin and maintained in DMEM medium containing 10% FBS, […] penicillin-streptomycin and 100 μg/ml hygromycin. These cells were then transiently transfected with plasmids carrying human PS1. 48 hours after transfection, cells were starved in serum-free DMEM medium for 2 hours, then treated with 1 μm of the γ-secretase inhibitor DAPT or 0.5 μm of the Fkbp13 inhibitor rapamycin or FK506 respectively, in DMEM medium containing 5% FBS o/n. Cells then were harvested and lysed and the conditioned lysates were used to measure Aβ1-40 by sandwich ELISA as described in (Yan et al. Nature 402:533-537 1999)using 6E10 (Senetek) as the capture antibody and the polyclonal Pan-β-Amyloid (Oncogene) for detection of Aβ40. […]
# Fkbp13 = Fkbp13 levels in HEK293 cells transfected with Fkbp13 and Psn (Western blot); type: cell-based, Drosophila; conditions: treated for 1-24 hours
# Method: HEK293 cells were maintained at 37° C. and 5% CO2 in α-minimal essential medium (Hyclone) supplemented with 10% heat-inactivated fetal bovine serum and plated 24 hours before transfection. For each 10 cm tissue culture dish, 12-16 μg cDNA was used. HEK293 cells were transiently transfected with plasmids encoding Drosophila Rya-r44f, Fkbp13, or psn using calcium phosphate precipitation. The cells were harvested 40-42 hours afer transfection.
# Protein quantification, SDS-polyacrylamide gel electrophoresis (5-12% or 8-12% gradient gel, or 10% SDS-PAGE) and immunoblot analysis were carried out as described previously (Guo et al. Journal of Cell Science 113:3499-3508 2000) using the monoclonal antibodies, anti-β-actin and anti-FLAG (Sigma), anti-GFP (Santa Cruz Biotechnology), anti-HA (12c-A5, Roche), anti-β-tubulin (Developmental Studies Hybridoma Bank), anti-Xpress and anti-V5 (Invitrogen) and a polyclonal anti-GFP (Santa Cruz Biotechnology). Microsomal fractions were prepared from cells using a detergent-free protocol. […]
# (§4) To determine the effect of drug treatment on Psn stability, HEK293 cells were transiently co-transfected with psn and Fkbp13 constructs. 24 hours after transfection, 100 mm dishes of transfected HEK293 cells were treated with 5 μM FK506 (CALBIOCHEM), 1 μM Rapamycin (CALBIOCHEM) or DMSO (control), harvested at various time points and analyzed by Western blotting techniques. […]
# Actin = Actin levels in HEK293 cells transfected with Fkbp13 and Psn (Western blot); type: cell-based; conditions: treated for 1-24 hours
# Method: Protein quantification, SDS-polyacrylamide gel electrophoresis (5-12% or 8-12% gradient gel, or 10% SDS-PAGE) and immunoblot analysis were carried out as described previously (Guo et al. Journal of Cell Science 113:3499-3508 2000) using the monoclonal antibodies, anti-β-actin and anti-FLAG (Sigma), anti-GFP (Santa Cruz Biotechnology), anti-HA (12c-A5, Roche), anti-β-tubulin (Developmental Studies Hybridoma Bank), anti-Xpress and anti-V5 (Invitrogen) and a polyclonal anti-GFP (Santa Cruz Biotechnology). Microsomal fractions were prepared from cells using a detergent-free protocol. All steps were performed at <4° C. Cell pellets were resuspended in 300 μl hypo-osmotic buffer (20 mM Tris/HCl, pH 7.5) supplemented with complete protease inhibitor (Roche), homogenized through a 27G needle and sonicated. Nuclei were removed by centrifugation (1200 g, 25 minutes) and the post-nuclear supernatant (containing membrane and soluble fractions) was denatured for 5 minutes at 100° C. in SDS-PAGE sample buffer. […]
# as §4
# human PS-1 = experiment: 35S-methionine pulse-chase of PS1 stability in Cos-7 cells; type: cell-based; conditions: Cos-7 cells transfected with human PS-1, in the presence of FK506; without FK506 3.5±0.2 h
# Method: In order to confirm that FK506 was affecting the stability of PS1 a pulse-chase of ^35S-methionine was performed and the amount of PS1 remaining after various chase periods was measured by immunoprecipitation and autoradiography.
# Pulse-chase labeling of cells was performed using TRAN ^35S-LABEL™ Metabolic Labeling Reagent (ICN). Cos-7 cells were transiently transfected with human PS-1. After 48 hours, cells were washed with PBS and then starved in the presence of methionine and cysteine free DMEM (Invitrogen) containing 10% dialyzed fetal bovine serum for 1 hour at 37° C. Cells were then incubated with [^35S] methionine (400 μCi/ml) in the presence or absence of FK506 for an additional 2 hours. The cells were then washed with 10 ml of PBS twice and chased with DMEM containing the indicated reagents for various times. Cells were then harvested and lysed in IP buffer and TCA precipitated to quantify the incorporation of ^35S-methionine. Equal amounts of microsomal fractions from radioactive cells were then incubated with 2 μg of anti-human PS1. Subsequently, […] of protein A agarose beads (Invitrogen) were added to the IP reactions and rotated for 2 hours at 4° C. The beads were then washed 4 times with IP washing buffer, denatured in 2× SDS-PAGE sample buffer and run on 12% SDS-PAGE.
# APH-1 = APH-1 protein levels in transfected Drosophilia S2 cells (Western analysis); type: cell-based; conditions: 50 μM FK506 over a 24 hour period
# Text: as §1, §2, §3
# Nct = Nct protein levels in transfected Drosophilia S2 cells (Western analysis); type: cell-based; conditions: 50 μM FK506 over a 24 hour period
# Text: as §1, §2, §3
SMILES,effect of DAPT on protein levels (PEN-2) in S2 cells (PEN-2),"β-amyloid peptide production (in words) (γ-secretase; APP C99 + human PS1, 1 μm DAPT or 0.5 μm rapamycin o/n)",levels of Fkbp13 (Fkbp13),levels of Actin (Actin),PS1 half-life (human PS-1) [h],levels of APH-1 (APH-1),levels of Nct (Nct),"decrease in the levels of β-amyloid peptide (γ-secretase; APP C99 + human PS1, 0.5 μm FK506 o/n, vs untreated or DMSO treated controls) [%]"
C[C@H](NC(=O)Cc1cc(F)cc(F)c1)C(=O)N[C@H](C(=O)OC(C)(C)C)c1ccccc1 [DAPT],no effect,comparable,–,–,–,–,–,–
C=CC[C@@H]1/C=C(\C)C[C@H](C)C[C@H](OC)[C@H]2O[C@@](O)(C(=O)C(=O)N3CCCC[C@H]3C(=O)O[C@H](/C(C)=C/[C@@H]3CC[C@@H](O)[C@H](OC)C3)[C@H](C)[C@@H](O)CC1=O)[C@H](C)C[C@@H]2OC [FK506],–,–,no effect,no effect,1.25 ± 0.3,no effect,no effect,80
